Measurements reported in patent publication US6548307B2, “Determination of logP coefficients via a RP-HPLC column” (Pfizer Inc., priority 2000, dated 2003).
Like-named read-outs stand apart in the source and are kept apart here.

Columns and labels:
physchem = settings: for log k′2 (capacity factor extrapolated to 0% methanol): Average of at least three determinations on different LC-ABZ columns, 20 mM MOPS pH 7.4/methanol with octanol; for Residual: logPoct minus ElogPoct
Description: The mobile phase consisted, in all cases, of 20 mM MOPS buffer at pH 7.4, and methanol in varying proportions from 70 to 15% v/v. […] The capacity factors data (k′=(tR−t0)/t0) obtained at various amounts of methanol were then extrapolated to 0% methanol and reported as log k′w, using a linear procedure. […] Injections of pure methanol were used to determine t0, i.e. the dead time, while tR has the usual meaning of the retention time for the analyte.
All the chromatographic runs were performed on a HP-1100 HPLC ChemStation at the ambient temperature. The columns used were Supelcosil LC-ABZ, 5μm, 4.6×50 mm. […] Columns having different silica bond lots were tested to ensure reproducibility. Samples were dissolved in 1:1 methanol/water at a concentration of 10-30 μg/mL. The flow rate was 0.5, 1 or 2 mL/min, depending on the lipophilicity range. Three lipophilicity ranges were established using, in all cases, three points for the extrapolation to k′w, as described in the table below.
The samples were placed in the appropriate range by estimating their lipophilicity via computed values, or by prior experience with a given class. In each case the entire group of samples was run before the column is equilibrated to the next condition, in an automated fashion, and the initial estimation need not be very accurate. The data analysis was automated via in-house software yielding the ElogPoct values, directly from the chromatographic data files.

[1] = Shake-flask data from literature references; cited from earlier work
[2] = Shake-flask octanol/buffer partition coefficient (logPoct); assay type: physicochemical; settings: Shake-flask data, this work (in-house, octanol/MOPS buffer, overnight shaking)
From the text: The shake-flask logPoct data were taken from the literature or determined in-house, except when data were not available or could not be determined experimentally due to the high lipophilicity of the compound. In such cases a computed value was used. The shake-vial experimental measurements performed in-house were all conducted at least in duplicate, in amber glass vials and, in some cases, with varying ratios of octanol and MOPS buffer, mutually pre-saturated prior to the experiment. Overnight shaking was used. HPLC analysis at different wavelengths, after centrifugation and separation of the phases, was used for the quantitative analysis, using both phases.

[3] = Data from Equation 3 (from log k′w)

Structure (SMILES): Oc1cc(Cl)cc(Cl)c1 [3,5-Dichlorophenol]
- chromatographic logP (physchem): 3.91
- log k′2 (capacity factor extrapolated to 0% methanol) (physchem): 3.40
- Residual (physchem): −0.23
- logPoct [1]: 3.68

Structure (SMILES): Brc1cnc2ccccc2c1 [3-Bromoquinoline]
- chromatographic logP (physchem): 2.95
- log k′2 (capacity factor extrapolated to 0% methanol) (physchem): 2.54
- Residual (physchem): 0.08
- logPoct [1]: 3.03

Structure (SMILES): Oc1cccc(Cl)c1 [3-Clorophenol]
- log k′2 (capacity factor extrapolated to 0% methanol) (physchem): 2.49
- Residual (physchem): −0.40

Structure (SMILES): CC(=O)Nc1ccc(O)cc1 [Acetaminophen]
- chromatographic logP (physchem): 0.11
- log k′2 (capacity factor extrapolated to 0% methanol) (physchem): −0.02
- Residual (physchem): 0.40

Structure (SMILES): CC(=O)c1ccccc1 [Acetophenone]
- chromatographic logP (physchem): 1.59
- log k′2 (capacity factor extrapolated to 0% methanol) (physchem): 1.31
- Residual (physchem): −0.01

Structure (SMILES): Oc1ncnc2[nH]ncc12 [Allopurinol]
- log k′2 (capacity factor extrapolated to 0% methanol) (physchem): −0.89
- Residual (physchem): 0.30
- ElogPoct (physchem; pH 7.4): −0.85
- logPoct [1]: −0.55

Structure (SMILES): c1ccc(-c2ccc(C(c3ccccc3)n3ccnc3)cc2)cc1 (centres unmarked) [Bifonazole]
- chromatographic logP (physchem): 4.98
- log k′2 (capacity factor extrapolated to 0% methanol) (physchem): 4.37
- Residual (physchem): −0.21
- logPoct [1]: 4.77

Structure (SMILES): O=C1CN=C(c2ccccn2)c2cc(Br)ccc2N1 [Bromazepam]
- chromatographic logP (physchem): 1.39
- log k′2 (capacity factor extrapolated to 0% methanol) (physchem): 1.13
- Residual (physchem): 0.26
- logPoct [1]: 1.65

Structure (SMILES): NC(=O)N1c2ccccc2C=Cc2ccccc21 [Carbamazepine]
- chromatographic logP (physchem): 2.02
- log k′2 (capacity factor extrapolated to 0% methanol) (physchem): 1.70
- Residual (physchem): 0.17
- logPoct [1]: 2.19

Structure (SMILES): C[C@@H]1C[C@H]2[C@@H]3CCC4=CC(=O)C=C[C@]4(C)[C@@]3(F)[C@@H](O)C[C@]2(C)[C@@]1(O)C(=O)CO [Dexamethasone]
- chromatographic logP (physchem): 2.39
- logPoct [1]: 1.83

Structure (SMILES): CC/C(=C(/CC)c1ccc(O)cc1)c1ccc(O)cc1 [Diethylstilbestrol]
- chromatographic logP (physchem): 4.75
- log k′2 (capacity factor extrapolated to 0% methanol) (physchem): 4.16
- Residual (physchem): 0.32
- logPoct [1]: 5.07

Structure (SMILES): C[C@]12CC[C@@H]3c4ccc(O)cc4CC[C@H]3[C@@H]1CC[C@@H]2O [Estradiol]
- chromatographic logP (physchem): 3.84

Structure (SMILES): COC1=CC(=O)C[C@@H](C)[C@]12Oc1c(Cl)c(OC)cc(OC)c1C2=O [Griseofulvin]
- chromatographic logP (physchem): 2.59
- log k′2 (capacity factor extrapolated to 0% methanol) (physchem): 2.21
- Residual (physchem): −0.41
- logPoct [1]: 2.18

Structure (SMILES): CC(=O)OCC(=O)[C@@]1(O)CC[C@H]2[C@@H]3CCC4=CC(=O)CC[C@]4(C)[C@H]3[C@@H](O)C[C@@]21C [Hydrocortisone-21-acetate]
- log k′2 (capacity factor extrapolated to 0% methanol) (physchem): 1.93
- ElogPoct (physchem; [3]): 2.27
- Residual (physchem): −0.08

Structure (SMILES): O=C1Nc2ccc(Cl)cc2C(c2ccccc2Cl)=NC1O (centres unmarked) [Lorazepam]
- chromatographic logP (physchem): 2.75
- log k′2 (capacity factor extrapolated to 0% methanol) (physchem): 2.36
- Residual (physchem): −0.24

Structure (SMILES): CN1C(=O)C(O)N=C(c2ccccc2Cl)c2cc(Cl)ccc21 (centres unmarked) [Lormetazepam]
- chromatographic logP (physchem): 2.8
- log k′2 (capacity factor extrapolated to 0% methanol) (physchem): 2.40
- Residual (physchem): −0.08
- logPoct [1]: 2.72

Structure (SMILES): CSc1ncnc2c1ncn2[C@@H]1O[C@H](CO)[C@@H](O)[C@H]1O [Methylthiolnosine]
- log k′2 (capacity factor extrapolated to 0% methanol) (physchem): 0.19
- ElogPoct (physchem; [3]): 0.34
- Residual (physchem): −0.25
- logPoct [2]: 0.09

Structure (SMILES): Cc1ncc([N+](=O)[O-])n1CCO [Metronidazole]
- log k′2 (capacity factor extrapolated to 0% methanol) (physchem): −0.32
- Residual (physchem): 0.20
- ElogPoct (physchem; pH 7.4): −0.22
- logPoct [1]: −0.02

Structure (SMILES): c1ccc2ccccc2c1 [Naphthalene]
- chromatographic logP (physchem): 3.53
- log k′2 (capacity factor extrapolated to 0% methanol) (physchem): 3.06
- Residual (physchem): −0.16

Structure (SMILES): O=[N+]([O-])c1ccc(/C=N/O)o1 [Nifuroxime]
- chromatographic logP (physchem): 1.36
- log k′2 (capacity factor extrapolated to 0% methanol) (physchem): 1.11
- Residual (physchem): −0.08
- logPoct [2]: 1.28

Structure (SMILES): NC(=O)N/N=C/c1ccc([N+](=O)[O-])o1 [Nitrofurazone]
- chromatographic logP (physchem): 0.24
- log k′2 (capacity factor extrapolated to 0% methanol) (physchem): 0.10
- Residual (physchem): −0.01
- logPoct [1]: 0.23

Structure (SMILES): CC(=O)CCCCn1c(=O)c2c(ncn2C)n(C)c1=O [Pentoxifylline]
- chromatographic logP (physchem): 0.31
- log k′2 (capacity factor extrapolated to 0% methanol) (physchem): 0.16
- Residual (physchem): −0.02
- logPoct [1]: 0.29

Structure (SMILES): C[C@]12C=CC(=O)C=C1CC[C@@H]1[C@@H]2[C@@H](O)C[C@@]2(C)[C@H]1CC[C@]2(O)C(=O)CO [Prednisolone]
- chromatographic logP (physchem): 1.84
- log k′2 (capacity factor extrapolated to 0% methanol) (physchem): 1.54
- Residual (physchem): −0.24

Structure (SMILES): C[C@]12C=CC(=O)C=C1CC[C@@H]1[C@@H]2C(=O)C[C@@]2(C)[C@H]1CC[C@]2(O)C(=O)CO [Prednisone]
- log k′2 (capacity factor extrapolated to 0% methanol) (physchem): 1.21
- Residual (physchem): −0.02

Structure (SMILES): c1ccc2ncccc2c1 [Quinoline]
- chromatographic logP (physchem): 1.86
- log k′2 (capacity factor extrapolated to 0% methanol) (physchem): 1.56
- Residual (physchem): 0.17

Structure (SMILES): C[C@]12CC[C@H]3[C@@H](CCC4=CC(=O)CC[C@@]43C)[C@@H]1CC[C@@H]2O [Testosterone]
- log k′2 (capacity factor extrapolated to 0% methanol) (physchem): 2.74
- ElogPoct (physchem; [3]): 3.17
- Residual (physchem): 0.12
- logPoct [1]: 3.29

Structure (SMILES): CS(=O)(=O)c1ccc([C@@H](O)[C@@H](CO)NC(=O)C(Cl)Cl)cc1 [Thiamphenicol]
- log k′2 (capacity factor extrapolated to 0% methanol) (physchem): −0.24
- Residual (physchem): −0.14
- ElogPoct (physchem; pH 7.4): −0.13
- logPoct [1]: −0.27

Structure (SMILES): Cc1cccc(N(C)C(=S)Oc2ccc3ccccc3c2)c1 [Tolnaftate]
- chromatographic logP (physchem): 5.18
- log k′2 (capacity factor extrapolated to 0% methanol) (physchem): 4.55
- Residual (physchem): 0.22
